Measurements from patent US12358963B2, “Regenerative polypeptides and uses thereof” (Juvena Therapeutics, Inc., priority 2019, dated 2025).

Experiments:
Format in all cases: cell-based
[1] = test system: aged human myoblast cell lines; assay: Myogenic gene RNA expression in aged human myoblasts by real-time qPCR
Experimental: Myogenic gene RNA expression (fold change to FM) in response to vehicle (FM) in mouse myoblast cell lines monitored by real-time qPCR. Myoblast were cultured 48h in fusion media. Mean±SD. n=3. (Y,Z) Differential induction of myogenic gene expression by FGF17 in human myoblast myoblasts. Quantitation table of myogenic gene RNA expression (fold change to FM-fusion media (DMEM+2% horse serum)) in response to FM or rh-FGF17 in aged human myoblast cell lines by real-time qPCR. Myoblast were cultured (B) 48 hours or (C) 72 hours in FM. Mean∓SD. n=3.
RNA was isolated from each well (RNeasy Mini Kit, Qiagen) and cDNA was obtained by reverse-transcription (High Capacity Reverse Transcription Kit, Thermo Fisher Scientific). Real-time quantitative PCR was performed using QuantStudio3 (Thermo Fisher).
Aged human myoblasts were cultured in well plates. […] Cells that had been cultured with IGF2 had increases in levels of MYOG at 48 hours and levels of MYOD at 72 hours.

DM1 human myoblast [2] = assay: DM1 human myoblast proliferation (EdU); conditions: 72h; vehicle 1.0
Experimental: (§1) Bar graph of % EdU+ human myoblast (person) and % area MyHC in response to IGF2. Myoblast were cultured 72h for proliferation and 96h for fusion in the presence of indicated factor. Mean∓S.D. Mean∓SD. Significant p-values (EdU: Vehicle˜IGF2: 6.8E-3, % eMyHC Area: Vehicle˜IGF2: 1.9E-4) (*p<0.05 by Students Two-Tailed T-test, n=3-6).
(§2) IGF2 was tested individually for its ability to promote proliferation and/or fusion of human muscle progenitor cells from an individual with myotonic dystrophy type 1 (hMD)—a muscular dystrophy caused by mutations in the DMPK1 gene. The effect of IGF2 on myogenic activity was assayed in biological triplicate across a range of concentrations centered around expected physiological levels by adding each factor to hMD myoblasts for 72 hours with daily media changes (DMEM +2% horse serum) and a second pulse of factors at the first media change. After 72 or 96 hours, cells were pulsed for 2-5 hours with EdU (30 uM), ethanol fixed, stained with Hoescht 3342, immunostained for proliferation—as measured by the percent of cells staining positive for EdU (% EdU)—, and immunostained for differentiation—as measured by the increase in cellular area staining positive for embryonic myosin heavy chain (% eMyHC) relative to the negative controls, which received media and vehicle only. […]

DM1 human myoblast [3] = assay: Gene expression fold change in DM1 human myoblast; conditions: IGF2 200 ng/mL
human myoblast cells = assay: Human myoblast differentiation, % area eMyHC (IGF2, sodium butyrate); conditions: 96h, vehicle 6.813
Experimental: Fresh media was added every 24 hours. […] The total area of eMyHc positive cells was analyzed, and treated cells were compared to cells treated with the vehicle alone. […] Myoblast were cultured 96h in the presence of BMP7 at indicated dose. Fresh media and BMP7 was added every 24h. Mean∓S.D. (*p<0.05 by One-Way Anova Tukey Honest Significant Difference, n=2-12) […] Fresh media was added every 24 hours. […] FIG. 3A: Bar graph of % Area eMyHC+ age human myoblast (person) in response to indicated treatment compared to Vehicle (vehicle). Myoblast were cultured 96h in the presence of factors at indicated dose. Fresh media and factors were added every 24h. Mean∓S.D. Significant p-values (Vehicle IGF2: 0.03 ug/mL: 1.42E-08, Vehicle NaBut: 1 nM IGF2: 0.03 ug/mL: 1.79E-11, Vehicle NaBut: 10 nM IGF2: 0.03 ug/mL: 1.80E-11, Vehicle NaBut: 100 nM IGF2: 0.03 ug/mL: 1.79E-11). […] Myoblast were cultured 96h in the presence of BMP7 at indicated dose. Mean±S.D. Significant p-values (IGF2 NaBut: 1 nM IGF2: 0.03 ug/mL: 1.88E-3, Vehicle NaBut: 10 nM IGF2: 0.03 ug/mL: 4.80E-3, Vehicle NaBut: 100 nM IGF2: 0.03 ug/mL: 1.87E-3) (*p<0.05 by One-Way ANOVA Tukey Honest Significant Difference, n=2-12)

DM1 human myoblast [4] = assay: DM1 human myoblast fusion (% eMyHC area); conditions: 96h; vehicle 0.45
Experimental: as §1, §2

[5] = 48h, BMP7 50 ng/mL, Butyrate 100 nM, FM 1.000

IGF2: IGF2 polypeptide, IGF1R agonist
MYOD1 RNA expression (fold change to FM) ([1]; 48 hr, FM 1.001): 0.519
MYOG RNA expression (fold change to FM) ([1]; 48 hr, FM 1.013): 5.756
MYF5 RNA expression (fold change to FM) ([1]; 48 hr, FM 1.04): 0.409
MYF5 RNA expression (fold change to FM) ([1]; 72 hr, FM 1.023): 0.708
MYOD1 RNA expression (fold change to FM) ([1]; 72 hr, FM 1.055): 5.723
MYOG RNA expression (fold change to FM) ([1]; 72 hr, FM 1.092): 0.018
EdU FC (DM1 human myoblast [2]): 2.18
ATP1B1 expression fold change compared to FM (vehicle) (DM1 human myoblast [3]; 48h): 3.018
MYF5 expression fold change compared to FM (DM1 human myoblast [3]; [5]): 0.730
MYOD1 expression fold change compared to FM (DM1 human myoblast [3]; [5]): 1.252
MYOG expression fold change compared to FM (DM1 human myoblast [3]; [5]): 2.972
CKM expression fold change compared to vehicle (DM1 human myoblast [3]; 96h): 5.165
MYH3 expression fold change compared to vehicle (DM1 human myoblast [3]; 96h): 14.833
% eMyHC (human myoblast cells; IGF2 0.015 ug/mL): 10.843%
% eMyHC (human myoblast cells; IGF2 0.03 ug/mL, aged human myoblast): 16.620%
% eMyHC are (DM1 human myoblast [4]): 5.49%
